# Measurements taken from patent US4237307A, “15-Deoxy-16-hydroxy-16-methyl-Δ19-prostaglandins of the E and F series” (American Cyanamid Company, priority 1979, dated 1980).
# Columns and labels:
# Type in all cases: in vivo, Guinea-Pigs
# [1] = system: bronchospasms elicited by intravenous injections of acetylcholine; assay: Konzett procedure: bronchodilator activity against acetylcholine-induced bronchospasm, i.v.; settings: Cavia porcellus; guinea pig; spasmogen acetylcholine i.v.; three logarithmic cumulative intravenous doses
# Description: (§1) The bronchodilator activity for representative compounds of this invention was determined in Guinea-Pigs against bronchospasms elicited by intravenous injections of serotonin, histamine, and acetylcholine, by the Konzett procedure the details of which are those discussed by J. Lulling, P Lievens, F. El Sayed and J. Prignot, Arzeimittel-Forschung 18, 995 (1968).
# (§2) In the table which follows, bronchodilator activity for representative compounds of the invention against spasmogenic agents serotonin, histamine, and acetylcholine is expressed as an ED50 determined from the results obtained with three logarithmic cumulative intravenous doses.
# [2] = system: bronchospasms elicited by intravenous injections of serotonin; assay: Konzett procedure: bronchodilator activity against serotonin-induced bronchospasm, i.v.; settings: Cavia porcellus; guinea pig; spasmogen serotonin i.v.; three logarithmic cumulative intravenous doses
# Description: as §1, §2
# [3] = system: bronchospasms elicited by intravenous injections of histamine; assay: Konzett procedure: bronchodilator activity against histamine-induced bronchospasm, i.v.; settings: Cavia porcellus; guinea pig; spasmogen histamine i.v.; three logarithmic cumulative intravenous doses
# Description: as §1, §2
smiles,measurement,setting,value
"C=CCCC(C)(O)C/C=C/[C@H]1[C@H](O)CC(=O)[C@@H]1C/C=C\CCCC(=O)O (relative stereo) [dl-11α,16-DIHYDROXY-9-OXO-16-METHYL-5-cis-13-trans-Δ^19 PROSTATRIENOIC ACID]",ED50,[1],10.6 µg/kg
same,ED50,[2],3.8 µg/kg
same,ED50,[3],6.4 µg/kg
